Source: ChEMBL document CHEMBL1201862, “PubChem BioAssay data set” (2004)
Activity calls are given as the source filed them.

Experiments:
HeLa = test: HeLa cell cytotoxicity, dose response, cytotoxicity control for MITF activator project, CellTiter-Glo luminescence, cherry-pick samples (AID 540259); format: functional, cell-based; details: Homo sapiens
HEK293 [1] = test: cells; details: Homo sapiens
[2] = THP-1 cell cytotoxicity, dose response, cytotoxicity control for Vif-APOBEC3G degradation inhibitor project, THP-1 cells (AID 1117359); format: functional; details: Human immunodeficiency virus 1, THP-1
A-375 = test: A375 melanoma cell viability reduction, dose response, counter-screen for MITF modulator project, cherry-pick samples, set 2 (AID 540335); format: functional, cell-based; details: Homo sapiens
[3] = Luminescence Cell-Based Dose Retest to Confirm Inhibitors of Cancer Stem Cells. [Related pubchem assays (depositor defined):AID2717, AID2721]; format: functional; details: Homo sapiens
[4] = target: Hepatocyte nuclear factor 4-alpha (Homo sapiens, UniProt P41235); format: functional, cell-based;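 note: biochemical luminescence-based dose-response counterscreen measuring inhibition of HNF4 dimerization, run alongside a screen for blockers of ABHD5–perilipin-5 interaction; split luciferase complementation of HNF4 fusion proteins in cell lysate measuring dimerization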
[5] = target: T1, Microphthalmia-associated transcription factor (Homo sapiens, UniProt O75030); test: TRPM1 promoter luciferase signal decrease, dose response, MITF inhibitor project, cell-based, SK-MEL-5, cherry-picked, set 3 (AID 493073); format: functional
T1 sequence (O75030 whole entry): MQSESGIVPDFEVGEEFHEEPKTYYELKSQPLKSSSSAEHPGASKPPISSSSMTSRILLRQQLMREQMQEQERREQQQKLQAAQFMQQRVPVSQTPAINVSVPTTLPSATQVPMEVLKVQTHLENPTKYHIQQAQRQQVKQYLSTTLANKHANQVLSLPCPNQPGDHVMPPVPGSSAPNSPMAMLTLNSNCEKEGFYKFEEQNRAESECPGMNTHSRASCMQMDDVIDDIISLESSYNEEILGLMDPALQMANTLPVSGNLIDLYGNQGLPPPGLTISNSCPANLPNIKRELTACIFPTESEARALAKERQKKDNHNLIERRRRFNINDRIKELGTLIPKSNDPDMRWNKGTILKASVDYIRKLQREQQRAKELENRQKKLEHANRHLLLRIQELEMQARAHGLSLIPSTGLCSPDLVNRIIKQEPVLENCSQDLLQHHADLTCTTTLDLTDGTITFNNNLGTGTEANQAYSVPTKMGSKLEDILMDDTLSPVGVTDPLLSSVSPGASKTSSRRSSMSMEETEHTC

HEK293 [6] = test: cells; details: Homo sapiens; remark: listed apart in the source
[7] = target: T2, Type-1 angiotensin II receptor (Homo sapiens, UniProt P30556); test: AT1 receptor antagonists, dose response, selectivity assay for APJ receptor antagonist project, cell-based, uHTS hits (AID 463214); format: functional;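 note: antagonist potency against angiotensin II stimulated AT1 response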
T2 sequence (P30556 whole entry): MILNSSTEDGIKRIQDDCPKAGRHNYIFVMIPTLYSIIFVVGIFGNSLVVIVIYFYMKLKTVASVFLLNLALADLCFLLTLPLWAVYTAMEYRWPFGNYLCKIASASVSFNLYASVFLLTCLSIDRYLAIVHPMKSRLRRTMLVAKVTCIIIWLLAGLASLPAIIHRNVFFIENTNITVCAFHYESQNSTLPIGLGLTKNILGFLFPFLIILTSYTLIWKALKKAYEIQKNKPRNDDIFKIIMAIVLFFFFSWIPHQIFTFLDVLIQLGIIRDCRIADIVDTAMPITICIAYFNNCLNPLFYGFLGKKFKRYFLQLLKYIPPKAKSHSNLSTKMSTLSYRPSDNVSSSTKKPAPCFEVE

Beta-galactosidase = Beta-galactosidase (Escherichia coli, UniProt Q8VNN2); test: PubChem AID 485352; format: functional
[8] = target: T3, Endoribonuclease toxin MazF (Escherichia coli K-12, UniProt P0AE70); test: fluorescent RNA oligo signal without MazF, dose response, counter-screen for MazEF activator project, biochemical, fluorescence, single-stranded RNase substrate (AID 588502); format: functional
T3 sequence (P0AE70 whole entry): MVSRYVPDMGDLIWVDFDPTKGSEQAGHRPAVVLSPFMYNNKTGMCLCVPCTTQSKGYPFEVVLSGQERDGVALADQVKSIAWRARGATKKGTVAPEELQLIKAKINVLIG

[9] = target: T3, Endoribonuclease toxin MazF; test: MazF toxin RNase activators, dose response, biochemical, fluorescence, single-stranded RNA substrate, uHTS hits (AID 588481); format: functional
[10] = target: T4, Sentrin-specific protease 6 (Homo sapiens, UniProt Q9GZR1); format: functional
T4 sequence (Q9GZR1 whole entry): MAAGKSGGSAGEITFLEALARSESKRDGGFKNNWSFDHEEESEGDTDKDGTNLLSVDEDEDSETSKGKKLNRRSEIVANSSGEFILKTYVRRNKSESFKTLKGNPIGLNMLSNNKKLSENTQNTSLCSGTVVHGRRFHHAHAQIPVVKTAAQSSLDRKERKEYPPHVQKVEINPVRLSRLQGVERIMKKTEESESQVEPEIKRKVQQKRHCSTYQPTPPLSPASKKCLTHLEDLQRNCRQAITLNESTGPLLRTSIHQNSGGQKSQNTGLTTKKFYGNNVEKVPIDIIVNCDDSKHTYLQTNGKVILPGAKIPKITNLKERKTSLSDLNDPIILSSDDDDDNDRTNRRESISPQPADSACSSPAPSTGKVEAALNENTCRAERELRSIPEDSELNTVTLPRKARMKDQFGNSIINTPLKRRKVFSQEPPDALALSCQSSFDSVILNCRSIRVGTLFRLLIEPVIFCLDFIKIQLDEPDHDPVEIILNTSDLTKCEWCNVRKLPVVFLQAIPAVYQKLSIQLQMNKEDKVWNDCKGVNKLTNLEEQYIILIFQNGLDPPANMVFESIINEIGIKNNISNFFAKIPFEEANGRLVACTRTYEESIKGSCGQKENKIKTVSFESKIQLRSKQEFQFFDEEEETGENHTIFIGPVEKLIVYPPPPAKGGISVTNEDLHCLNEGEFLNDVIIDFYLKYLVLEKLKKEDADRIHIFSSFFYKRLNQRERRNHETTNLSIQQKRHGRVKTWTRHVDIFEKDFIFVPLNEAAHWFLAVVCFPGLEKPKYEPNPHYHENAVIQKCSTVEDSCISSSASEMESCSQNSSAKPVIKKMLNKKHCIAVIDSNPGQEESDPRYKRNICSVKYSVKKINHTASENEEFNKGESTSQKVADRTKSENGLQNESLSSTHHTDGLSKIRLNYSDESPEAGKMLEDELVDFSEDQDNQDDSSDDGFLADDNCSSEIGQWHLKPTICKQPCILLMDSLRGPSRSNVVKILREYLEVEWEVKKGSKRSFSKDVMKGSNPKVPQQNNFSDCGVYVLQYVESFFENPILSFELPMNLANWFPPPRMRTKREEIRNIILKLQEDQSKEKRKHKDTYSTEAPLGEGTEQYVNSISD

[11] = target: T5, Sentrin-specific protease 7 (Homo sapiens, UniProt Q9BQF6); format: functional;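 note: Luminescence-based dose-response confirmation of ultra-high-throughput screening hits, measuring inhibition of SENP7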
T5 sequence (Q9BQF6 whole entry): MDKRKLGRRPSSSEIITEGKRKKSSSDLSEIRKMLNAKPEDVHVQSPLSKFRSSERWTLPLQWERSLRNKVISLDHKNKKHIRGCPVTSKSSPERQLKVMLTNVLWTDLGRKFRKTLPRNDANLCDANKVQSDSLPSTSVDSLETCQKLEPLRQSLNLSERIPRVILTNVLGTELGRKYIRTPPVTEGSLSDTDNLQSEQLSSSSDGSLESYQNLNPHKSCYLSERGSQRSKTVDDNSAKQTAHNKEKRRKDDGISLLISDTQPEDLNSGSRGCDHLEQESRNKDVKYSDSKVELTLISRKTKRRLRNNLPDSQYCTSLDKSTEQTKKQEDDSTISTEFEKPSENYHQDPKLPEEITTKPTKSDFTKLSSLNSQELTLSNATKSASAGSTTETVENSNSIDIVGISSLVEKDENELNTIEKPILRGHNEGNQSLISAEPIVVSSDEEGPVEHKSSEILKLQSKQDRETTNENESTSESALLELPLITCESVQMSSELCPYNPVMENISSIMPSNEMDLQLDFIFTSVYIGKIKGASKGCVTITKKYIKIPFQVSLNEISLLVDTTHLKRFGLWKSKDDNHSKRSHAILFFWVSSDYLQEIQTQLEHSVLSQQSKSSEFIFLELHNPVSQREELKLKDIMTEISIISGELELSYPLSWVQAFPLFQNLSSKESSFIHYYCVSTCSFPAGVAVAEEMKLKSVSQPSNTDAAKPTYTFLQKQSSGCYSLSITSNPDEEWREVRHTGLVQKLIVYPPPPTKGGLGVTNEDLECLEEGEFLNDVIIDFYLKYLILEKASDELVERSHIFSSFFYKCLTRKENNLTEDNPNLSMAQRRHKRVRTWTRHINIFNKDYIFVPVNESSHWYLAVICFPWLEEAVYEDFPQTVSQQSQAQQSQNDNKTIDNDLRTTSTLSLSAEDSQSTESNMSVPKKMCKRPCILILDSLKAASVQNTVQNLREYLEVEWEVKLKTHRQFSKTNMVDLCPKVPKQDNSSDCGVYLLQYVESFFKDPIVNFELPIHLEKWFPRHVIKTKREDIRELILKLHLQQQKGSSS

[12] = target: T6, Sentrin-specific protease 8 (Homo sapiens, UniProt Q96LD8); format: functional;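 note: luminescence read-out of SENP8 inhibition, dose-response confirmation following an ultra-high-throughput screen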
T6 sequence (Q96LD8 whole entry): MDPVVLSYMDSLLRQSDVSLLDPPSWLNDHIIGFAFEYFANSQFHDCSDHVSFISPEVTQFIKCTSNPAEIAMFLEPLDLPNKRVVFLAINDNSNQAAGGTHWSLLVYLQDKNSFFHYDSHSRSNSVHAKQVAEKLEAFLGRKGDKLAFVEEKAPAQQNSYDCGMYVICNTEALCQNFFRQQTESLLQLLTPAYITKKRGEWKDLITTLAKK

[13] = target: T6, Sentrin-specific protease 8; test: SENP8 protease inhibitors, SAR follow-up, biochemical, luminescence (AID 504501); format: functional
[14] = target: T4, Sentrin-specific protease 6; test: SAR Analysis of small molecule inhibitors of Sentrin-specific protease 6 (SENP6) using a Luminescent assay. [Related pubchem assays (depositor defined):AID2582, AID2599]; format: functional
Caspase-3 [15] = target: T7, Caspase-3 (Homo sapiens, UniProt P42574); test: SAR Analysis of small molecule inhibitors of Sentrin-specific proteases (SENPs) using a Caspase-3 Selectivity assay. [Related pubchem assays (depositor defined):AID2540, AID2599, AID434973, AID489001]; format: functional
T7 sequence (P42574 whole entry): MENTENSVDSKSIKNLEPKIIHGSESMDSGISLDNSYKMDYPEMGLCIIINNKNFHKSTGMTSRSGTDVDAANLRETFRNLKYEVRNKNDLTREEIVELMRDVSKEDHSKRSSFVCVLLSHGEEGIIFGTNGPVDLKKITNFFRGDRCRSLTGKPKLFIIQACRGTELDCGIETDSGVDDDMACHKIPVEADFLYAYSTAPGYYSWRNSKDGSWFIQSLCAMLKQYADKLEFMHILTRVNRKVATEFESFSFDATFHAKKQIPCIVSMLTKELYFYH

[16] = target: T8, Oxysterols receptor LXR-beta (Homo sapiens, UniProt P55055); format: functional, cell-based;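 note: agonist activity at LXR measured by a cell-based luminescence readout across a dose range, run as a counterscreen for daf-12 agonists; HEK293 cells with Gal4-LXR fusion and GAL4-driven luciferase reporter; potency for activation of Gal4-LXR reporter so compounds are agonists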
T8 sequence (P55055 whole entry): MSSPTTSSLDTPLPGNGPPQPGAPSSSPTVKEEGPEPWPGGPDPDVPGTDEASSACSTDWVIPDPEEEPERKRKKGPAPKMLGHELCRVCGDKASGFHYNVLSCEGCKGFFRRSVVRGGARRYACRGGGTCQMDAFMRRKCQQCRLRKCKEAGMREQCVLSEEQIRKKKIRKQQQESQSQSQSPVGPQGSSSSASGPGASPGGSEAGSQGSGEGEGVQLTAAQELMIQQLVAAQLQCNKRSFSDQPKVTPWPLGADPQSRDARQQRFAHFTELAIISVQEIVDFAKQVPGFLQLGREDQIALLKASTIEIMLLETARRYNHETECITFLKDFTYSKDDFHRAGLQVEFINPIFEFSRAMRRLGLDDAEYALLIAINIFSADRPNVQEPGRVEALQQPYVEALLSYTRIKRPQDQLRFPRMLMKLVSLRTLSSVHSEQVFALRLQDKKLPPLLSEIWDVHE

Caspase-3 [17] = target: T7, Caspase-3; format: functional
[18] = target: T5, Sentrin-specific protease 7; test: SENP7 protease inhibitors, SAR follow-up, biochemical, luminescence (AID 504497); format: functional
[19] = target: Ras and Rab interactor 1/Tyrosine-protein kinase ABL1 (Homo sapiens, UniProt P00519+Q13671); format: functional;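 note: biochemical TR-FRET dose-response test measuring inhibition of binding between Rin1 and Abl proteins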
Aurora kinase A = Aurora kinase A (Homo sapiens, UniProt O14965); format: functional;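 note: value from the Navigating the Kinome kinase panel profiling, panel entry STK6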
[20] = target: Cyclin-dependent kinase 19 (Homo sapiens, UniProt Q9BWU1); test: Navigating the Kinome. Panel member name: CDC2L6; format: functional
Chain of Cyclin-dependent kinase 19 (Q9BWU1 whole entry): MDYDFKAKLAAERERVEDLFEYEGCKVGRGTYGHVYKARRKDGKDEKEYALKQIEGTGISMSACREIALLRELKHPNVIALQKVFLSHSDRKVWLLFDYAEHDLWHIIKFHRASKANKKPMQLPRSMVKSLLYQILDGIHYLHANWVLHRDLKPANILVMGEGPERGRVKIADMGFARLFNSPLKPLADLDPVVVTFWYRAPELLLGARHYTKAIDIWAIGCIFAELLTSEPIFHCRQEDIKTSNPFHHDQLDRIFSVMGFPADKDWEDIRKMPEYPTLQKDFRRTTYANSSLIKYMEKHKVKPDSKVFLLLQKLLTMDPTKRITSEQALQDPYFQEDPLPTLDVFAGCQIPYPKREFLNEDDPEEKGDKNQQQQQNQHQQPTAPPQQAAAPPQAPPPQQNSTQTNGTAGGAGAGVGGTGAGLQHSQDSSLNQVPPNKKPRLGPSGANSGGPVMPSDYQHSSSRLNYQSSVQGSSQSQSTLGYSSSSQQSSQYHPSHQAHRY

Chain of Beta-galactosidase (Q8VNN2 whole entry): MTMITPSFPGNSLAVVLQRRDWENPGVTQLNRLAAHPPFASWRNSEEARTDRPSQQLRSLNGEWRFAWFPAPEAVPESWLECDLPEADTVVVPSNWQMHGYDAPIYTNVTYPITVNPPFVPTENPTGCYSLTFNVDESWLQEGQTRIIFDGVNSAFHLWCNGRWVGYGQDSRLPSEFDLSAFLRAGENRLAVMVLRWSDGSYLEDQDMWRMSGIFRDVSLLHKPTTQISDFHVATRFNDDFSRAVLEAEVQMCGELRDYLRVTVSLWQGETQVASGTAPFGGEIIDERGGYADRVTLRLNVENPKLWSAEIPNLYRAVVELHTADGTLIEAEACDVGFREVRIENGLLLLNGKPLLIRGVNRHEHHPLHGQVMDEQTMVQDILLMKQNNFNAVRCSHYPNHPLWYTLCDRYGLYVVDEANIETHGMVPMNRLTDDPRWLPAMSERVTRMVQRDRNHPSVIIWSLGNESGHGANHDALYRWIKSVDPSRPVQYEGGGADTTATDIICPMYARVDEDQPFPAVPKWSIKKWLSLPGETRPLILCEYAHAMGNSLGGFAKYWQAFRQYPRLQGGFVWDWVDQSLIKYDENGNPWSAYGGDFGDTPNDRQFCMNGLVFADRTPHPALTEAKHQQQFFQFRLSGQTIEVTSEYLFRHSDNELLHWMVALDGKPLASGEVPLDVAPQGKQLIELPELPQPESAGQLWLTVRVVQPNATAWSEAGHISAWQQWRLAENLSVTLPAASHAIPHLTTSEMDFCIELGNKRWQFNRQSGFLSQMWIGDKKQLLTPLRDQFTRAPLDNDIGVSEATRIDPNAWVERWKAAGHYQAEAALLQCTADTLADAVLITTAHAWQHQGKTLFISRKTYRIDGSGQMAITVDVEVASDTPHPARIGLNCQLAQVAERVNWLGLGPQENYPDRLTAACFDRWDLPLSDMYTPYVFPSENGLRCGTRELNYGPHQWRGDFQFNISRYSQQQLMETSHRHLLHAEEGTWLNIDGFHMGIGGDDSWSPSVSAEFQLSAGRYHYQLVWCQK
Chain of Ras and Rab interactor 1/Tyrosine-protein kinase ABL1 (P00519 whole entry): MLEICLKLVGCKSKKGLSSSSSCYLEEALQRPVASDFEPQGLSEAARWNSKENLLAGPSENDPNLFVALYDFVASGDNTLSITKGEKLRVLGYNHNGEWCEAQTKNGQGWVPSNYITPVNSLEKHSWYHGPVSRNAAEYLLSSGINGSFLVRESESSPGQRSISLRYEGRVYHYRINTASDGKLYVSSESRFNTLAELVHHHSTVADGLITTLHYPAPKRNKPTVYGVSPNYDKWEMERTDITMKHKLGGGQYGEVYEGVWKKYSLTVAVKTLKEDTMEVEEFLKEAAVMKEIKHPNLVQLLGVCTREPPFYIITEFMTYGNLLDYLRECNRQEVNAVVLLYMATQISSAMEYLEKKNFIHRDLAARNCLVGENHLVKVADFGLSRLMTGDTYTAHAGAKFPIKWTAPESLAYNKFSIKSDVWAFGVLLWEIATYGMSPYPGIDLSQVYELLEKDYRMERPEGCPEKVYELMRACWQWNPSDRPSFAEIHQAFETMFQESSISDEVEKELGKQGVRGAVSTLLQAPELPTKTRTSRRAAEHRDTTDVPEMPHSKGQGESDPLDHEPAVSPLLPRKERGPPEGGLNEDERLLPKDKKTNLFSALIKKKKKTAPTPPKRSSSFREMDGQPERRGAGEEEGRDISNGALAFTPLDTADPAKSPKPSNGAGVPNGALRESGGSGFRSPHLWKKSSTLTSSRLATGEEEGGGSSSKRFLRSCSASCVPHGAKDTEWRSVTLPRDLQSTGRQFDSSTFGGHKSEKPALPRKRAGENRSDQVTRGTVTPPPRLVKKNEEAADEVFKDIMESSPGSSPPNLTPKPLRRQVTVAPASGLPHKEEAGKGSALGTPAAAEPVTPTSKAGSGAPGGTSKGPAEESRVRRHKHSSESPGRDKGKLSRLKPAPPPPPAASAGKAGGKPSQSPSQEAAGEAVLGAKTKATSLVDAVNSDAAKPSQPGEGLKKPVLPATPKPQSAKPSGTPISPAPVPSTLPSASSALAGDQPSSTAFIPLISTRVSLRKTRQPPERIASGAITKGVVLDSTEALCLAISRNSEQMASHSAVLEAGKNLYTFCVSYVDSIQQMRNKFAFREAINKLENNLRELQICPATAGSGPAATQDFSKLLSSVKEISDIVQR
Chain of Ras and Rab interactor 1/Tyrosine-protein kinase ABL1 (Q13671 whole entry): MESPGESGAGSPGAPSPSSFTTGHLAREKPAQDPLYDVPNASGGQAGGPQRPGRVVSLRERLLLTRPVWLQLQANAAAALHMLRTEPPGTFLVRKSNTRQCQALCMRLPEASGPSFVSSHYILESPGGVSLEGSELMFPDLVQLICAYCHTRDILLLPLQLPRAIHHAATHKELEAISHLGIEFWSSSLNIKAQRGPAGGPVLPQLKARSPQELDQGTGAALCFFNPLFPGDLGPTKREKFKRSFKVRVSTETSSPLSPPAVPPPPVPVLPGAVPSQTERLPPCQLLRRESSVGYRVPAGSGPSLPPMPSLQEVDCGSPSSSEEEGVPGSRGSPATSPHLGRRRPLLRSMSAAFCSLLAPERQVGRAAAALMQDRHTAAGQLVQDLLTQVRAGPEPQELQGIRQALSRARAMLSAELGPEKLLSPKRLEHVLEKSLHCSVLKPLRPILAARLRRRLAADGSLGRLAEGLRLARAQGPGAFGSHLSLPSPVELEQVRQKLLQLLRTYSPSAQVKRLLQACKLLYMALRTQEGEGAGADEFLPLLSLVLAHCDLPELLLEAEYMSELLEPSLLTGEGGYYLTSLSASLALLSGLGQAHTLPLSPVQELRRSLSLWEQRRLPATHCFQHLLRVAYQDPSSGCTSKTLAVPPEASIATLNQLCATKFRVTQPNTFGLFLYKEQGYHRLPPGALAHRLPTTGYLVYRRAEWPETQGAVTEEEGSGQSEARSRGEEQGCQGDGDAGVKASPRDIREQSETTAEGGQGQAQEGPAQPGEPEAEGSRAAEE
Chain of Aurora kinase A (O14965 whole entry): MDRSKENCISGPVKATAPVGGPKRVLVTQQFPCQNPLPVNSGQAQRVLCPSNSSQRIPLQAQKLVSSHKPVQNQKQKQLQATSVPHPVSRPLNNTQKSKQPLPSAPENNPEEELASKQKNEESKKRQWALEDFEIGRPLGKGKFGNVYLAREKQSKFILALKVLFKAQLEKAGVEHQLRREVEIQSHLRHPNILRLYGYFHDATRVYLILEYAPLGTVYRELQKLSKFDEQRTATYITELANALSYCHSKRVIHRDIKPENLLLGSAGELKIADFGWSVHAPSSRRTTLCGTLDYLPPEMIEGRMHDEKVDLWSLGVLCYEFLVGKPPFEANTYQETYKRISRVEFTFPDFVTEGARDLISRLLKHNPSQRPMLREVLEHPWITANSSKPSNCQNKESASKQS
Chain of Hepatocyte nuclear factor 4-alpha (P41235 whole entry, the tested form may be a part): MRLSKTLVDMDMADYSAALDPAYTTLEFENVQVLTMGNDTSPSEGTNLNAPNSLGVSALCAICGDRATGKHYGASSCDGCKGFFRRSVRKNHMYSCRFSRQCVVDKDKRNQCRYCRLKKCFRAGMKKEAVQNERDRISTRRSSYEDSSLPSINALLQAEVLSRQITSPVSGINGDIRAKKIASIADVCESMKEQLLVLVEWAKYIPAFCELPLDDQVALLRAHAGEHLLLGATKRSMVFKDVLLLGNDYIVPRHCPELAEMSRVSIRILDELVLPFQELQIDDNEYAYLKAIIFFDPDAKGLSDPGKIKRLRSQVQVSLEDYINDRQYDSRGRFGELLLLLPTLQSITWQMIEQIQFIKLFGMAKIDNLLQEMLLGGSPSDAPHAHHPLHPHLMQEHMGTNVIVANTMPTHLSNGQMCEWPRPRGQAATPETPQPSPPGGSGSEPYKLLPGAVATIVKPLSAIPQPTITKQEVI

Cc1ccsc1CCNC(=O)C1CCC(=O)N(CCc2cccc(F)c2)C1 (stereo not given)
AC50 (HeLa): 99.1 µM (active)

O=C1NC(=O)N(Cc2ccccc2)C(=O)/C1=C\C=C\c1ccco1
EC50 (HEK293 [1]): > 59.6 µM (inactive) | CC50 [2]: > 40 µM (active) | AC50 (A-375): 30.6 µM (active) | AC50 [3]: 1.48 µM (active) | IC50 [4]: 1.59 µM (active) | AC50 [5]: 6.29 µM (active) | EC50 (HEK293 [6]): > 59.6 µM (inactive)

NC(S)=NN=C(S)Nc1ccccc1
IC50 [7]: > 40 µM (not active) | EC50 (Beta-galactosidase): > 40 µM (inactive)

CC(C)(C)c1ccc(C(=O)CSc2nc3ccccc3c(=O)[nH]2)cc1
EC50 [8]: > 99 µM (inactive) | EC50 [9]: > 99 µM (inactive)

c1ccc(Nc2nc(-c3ccccc3)ns2)cc1
IC50 [10]: 2.19 µM (active) | IC50 [11]: 2.1 µM (active) | IC50 [12]: 2.41 µM (active) | IC50 [13]: 2.5 µM (active) | IC50 [14]: 1.9 µM (active) | IC50 (Caspase-3 [15]): 7.8 µM (active) | EC50 [16]: > 67.6 µM (inactive) | IC50 (Caspase-3 [17]): 18.8 µM (active) | IC50 [18]: 1.7 µM (active)

COc1cccc(NC(=O)C(=O)NCCC2CCCCN2S(=O)(=O)c2cccs2)c1 (stereo not given)
AC50 (HeLa): 239 µM (active)

CC(C)(C)OC(=O)N1CCC(C(=O)Nc2ccc(C(=O)N3CCCCC3)cc2)CC1
IC50 [19]: 21.9 µM (inactive)

Cc1ccc(C)c(NC(=O)Nc2ccc(-c3c(C)sc4ncnc(N)c34)cc2)c1
Ki (Aurora kinase A): 0.251 µM (active) | Ki [20]: > 100 µM (inactive)
